Source: paper PMC6370209, “Rapid and sensitive detection of NADPH via mBFP-mediated enhancement of its fluorescence” (PLoS ONE, 2019)

Experiments:
[1] = target: T1, mBFP (metagenome-derived blue fluorescent protein) (uncultured bacterium, UniProt D6NKF4); test: competition with NADPH, attenuation of mBFP-NADPH fluorescence; type: binding; conditions: […] Tris-HCl pH […] °C; competitive with NADPH; excess NADP+
T1 construct: full length, 248 amino acids, N-terminal 6-His tag kept (pQE30), expressed in E. coli XL1-Blue
T1 sequence (D6NKF4 1-248): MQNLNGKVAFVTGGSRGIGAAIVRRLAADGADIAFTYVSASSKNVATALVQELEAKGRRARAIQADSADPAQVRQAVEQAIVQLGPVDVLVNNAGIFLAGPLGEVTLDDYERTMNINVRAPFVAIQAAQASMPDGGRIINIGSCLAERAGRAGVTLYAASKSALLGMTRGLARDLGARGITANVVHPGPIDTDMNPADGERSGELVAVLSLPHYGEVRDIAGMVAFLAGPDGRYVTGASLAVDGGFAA

[2] = target: T1, mBFP (metagenome-derived blue fluorescent protein); test: fluorescence enhancement of NADPH upon mBFP addition (ex […] nm, em […] nm); type: binding; conditions: […] Tris-HCl pH […] °C
NAD(H) kinase (MfnK) = target: T2, NAD(H) kinase (MfnK) (Micrococcus luteus, UniProt Q8VUL9); test: NADPH formation detected by mBFP fluorescence; type: biochemical; conditions: 50 mM Tris-HCl pH 7.5, 0.1 mM MgCl2, 0.5 mM ATP, 0.5 mM NADH
T2 construct: full-length gene from genomic DNA, C-terminal His tag (pET-22b(+)), expressed in E. coli BL21(DE3), purified
T2 sequence (Q8VUL9 1-362): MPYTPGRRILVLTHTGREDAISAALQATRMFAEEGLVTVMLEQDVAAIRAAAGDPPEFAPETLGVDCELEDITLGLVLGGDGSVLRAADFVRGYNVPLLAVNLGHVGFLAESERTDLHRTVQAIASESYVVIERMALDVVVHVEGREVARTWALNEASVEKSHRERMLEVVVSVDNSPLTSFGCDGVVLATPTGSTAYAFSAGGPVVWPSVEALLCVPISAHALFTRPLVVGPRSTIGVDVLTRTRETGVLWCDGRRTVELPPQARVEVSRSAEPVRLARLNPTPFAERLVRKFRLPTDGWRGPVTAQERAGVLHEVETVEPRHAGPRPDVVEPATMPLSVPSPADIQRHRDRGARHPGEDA

NC(=O)c1ccc[n+]([C@@H]2O[C@H](COP(=O)(O)OP(=O)(O)OC[C@H]3O[C@@H](n4cnc5c(N)ncnc54)[C@H](OP(=O)(O)O)[C@@H]3O)[C@@H](O)[C@H]2O)c1 [NADP^+]
competition with NADPH, attenuation of mBFP-NADPH fluorescence [1]: excess NADP^+ resulted in competition for mBFP binding and attenuated the NADPH fluorescence enhancement

NC(=O)C1=CN([C@@H]2O[C@H](COP(=O)(O)OP(=O)(O)OC[C@H]3O[C@@H](n4cnc5c(N)ncnc54)[C@H](OP(=O)(O)O)[C@@H]3O)[C@@H](O)[C@H]2O)C=CC1 [NADPH]
fluorescence enhancement of NADPH upon mBFP addition (ex 350 nm, em 450 nm) [2]: An immediate enhancement of fluorescence was detected when the purified mBFP was added

NC(=O)C1=CN([C@@H]2O[C@H](COP(=O)(O)OP(=O)(O)OC[C@H]3O[C@@H](n4cnc5c(N)ncnc54)[C@H](O)[C@@H]3O)[C@@H](O)[C@H]2O)C=CC1 [NADH]
NADPH formation detected by mBFP fluorescence (NAD(H) kinase (MfnK)): enzymatic conversion of NADH to NADPH by MfnK as a function of the NADH amount
